Read-outs that look alike come from different tables or passages of the source.
Columns and labels:
[1] = target: T1, MtbFDTS (Mycobacterium tuberculosis, UniProt P9WG57); assay: MtbFDTS oxidase reaction followed by NADPH consumption; format: biochemical; details: for effect on the oxidase reaction (NADPH oxidation rate), in words: aerobic, no CH2H4folate, ligand up to 250 μM; for increase in the rate of NADPH consumption: relative to control without ligand, >10× KACT, up to 250 μM ligand
[2] = target: FAD-MtbFDTS complex (Mycobacterium tuberculosis, UniProt P9WG57); assay: biochemical; format: binding
FAD-MtbFDTS complex, sequence (P9WG57 whole entry, one chain of several): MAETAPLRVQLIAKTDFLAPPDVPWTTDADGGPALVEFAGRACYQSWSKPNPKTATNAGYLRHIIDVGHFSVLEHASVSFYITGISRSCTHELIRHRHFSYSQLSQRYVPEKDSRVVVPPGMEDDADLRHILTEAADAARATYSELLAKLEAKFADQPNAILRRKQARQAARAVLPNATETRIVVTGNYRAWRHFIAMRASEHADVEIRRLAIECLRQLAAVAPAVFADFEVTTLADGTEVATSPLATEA

[3] = target: T1, MtbFDTS; assay: Hydrogen peroxide formation from MtbFDTS oxidase reaction; format: biochemical; details: NADPH and 100 μM plumbagin versus NADPH only

T1 sequence (P9WG57 whole entry): as the sequence (P9WG57 whole entry, one chain of several) above

CN(Cc1cnc2nc(N)nc(N)c2n1)c1ccc(C(=O)N[C@@H](CCC(=O)O)C(=O)O)cc1 [methotrexate]
effect on the oxidase reaction (NADPH oxidation rate), in words [1]: display inhibition

O=c1[nH]c(=O)n([C@H]2C[C@H](O)[C@@H](COP(=O)(O)O)O2)cc1F [5-FdUMP, 5-fluoro-deoxyuridylate]
affinity to the FAD-MtbFDTS complex, in words ([2]; compared with dUMP): less affinity

O=C1C=C(O)C(=O)c2ccccc21 [lawsone, 2-hydroxy-1,4-naphthoquinone]
increase in the rate of NADPH consumption [1]: 5–10 fold

Cc1cn([C@H]2C[C@H](O)[C@@H](COP(=O)(O)O)O2)c(=O)[nH]c1=O [dTMP, 2′-deoxythymidine-5′-monophosphate]
effect on the oxidase reaction (NADPH oxidation rate), in words [1]: activated

5-hydroxy-2,4-naphthoquinone [plumbagin]
increase in the rate of NADPH consumption [1]: 5–10 fold
rate increase of hydrogen peroxide formation (initial velocity) [3]: ~10 fold

O=c1ccn([C@H]2C[C@H](O)[C@@H](COP(=O)(O)O)O2)c(=O)[nH]1 [dUMP, 2′-deoxyuridine-5′-monophosphate]
effect on the oxidase reaction (NADPH oxidation rate), in words [1]: increase in rate
Kd [2]: 1.1 ± 0.5 µM

Nc1nc(=O)c2c([nH]1)NCC(CNc1ccc(C(=O)N[C@@H](CCC(=O)O)C(=O)O)cc1)N2C=O (mixture of isomers) [folinic acid]
effect on the oxidase reaction (NADPH oxidation rate), in words [1]: display inhibition
Kd ([2]; read-out: apparent Kd, binding to the FAD-MtbFDTS complex): 1.3 ± 0.2 µM
affinity of folinic acid for the dUMP-FAD-MtbFDTS ternary complex, in words ([2]; saturating concentration of dUMP, compared with FAD-MtbFDTS): much higher affinity

Source: publication PMC13289949 (Biochemistry, 2025)
